# Patent US20240016784A1, “Y BOX BINDING PROTEIN 1 INHIBITORS” (Oregon Health & Science University, priority 2020, published 2024)
# Assays:
# ovarian cancer cells = experiment: Apoptotic cell death assay (Annexin-FITC); assay type: cell-based; details: 24 h treatment; Annexin-FITC staining
# Method: To determine whether proliferation inhibition was the dominant factor driving the reduction in OC viability seen with AzP treatment, we used propidium iodide and annexin-FITC stains with flow cytometry to measure the distribution of cell cycle phases after treatment. […] Furthermore, in the Boyden chamber assay for cell migration, SU093 inhibited cell migration by 40-46% (1 μM, P<0.05) in different OC cell lines.
# Apoptotic cell death assay: Cells were plated and treated as described in cell cycle analysis assay above. Treated cells were incubated for 24 h and both live and dead cells were collected. Cells were stained with Annexin V and PI using FITC Annexin V apoptosis detection kit (BD Pharmingen, San Jose, CA) by following the manufacturer's protocol. Guava® easyCyte™ Flow Cytometer was used to analyze the stained cells.
# FIG. 1A) Lead optimization of SU093 to obtain SU056. FIG. 1B) IC50 values of SU093 and SU056 on various ovarian cancer cells. Clonogenic survival of OC cells treated with SU093 or SU056. […] FIG. 1C) Representative colony formation from respective wells. FIG. 1D) Number of colonies formed after SU093 and SU056 treatment. […] FIG. 1F) Cell cycle distribution of propidium iodide (PI)-stained OVCAR8, SKOV3, and ID8 cells. […] FIG. 1G) Effects of SU093 and SU056 on apoptotic cell death analyzed by Annexin-FITC staining. […] FIG. 1H) Cell migration assay.
# YB-1 = YB-1 expression in six ovarian cancer cell lines; assay type: cell-based; details: 2.5 μM for 12 h; six different OC cell lines
# Method: Out of six targets identified, we selected proteins whose thermal shift is above 5° in the presence of SU056 for further study of protein expression after treatment. […] To study the in vivo effects of SU056 treatment, we analyzed ID8 tumor xenograft samples via immunohistochemistry (IHC). […] To identify the broader effects of SU056 on YB-1 and its downstream protein/activity in different ovarian cancer cell lines, we selected six different cell lines and treated them with SU056 (2.5 μM) for 12 h. Cells were analyzed for YB-1 and CD44 expression and Multidrug resistance 1 (MDR1, ABC pump mediated efflux). […] Finally, we tested the time kinetics and dose-dependent effects of SU056 on YB-1 expression. OVCAR4, OVCAR8, and SKOV3 cells were treated with SU056 (1, 2.5, and 5 μM) for 3, 6, 12, and 24 h and YB-1 expression was measured using YB-1 ELISA. […]
# Total YB-1 sandwich ELISA: Total YB-1 protein level was analyzed using PathScan® Total YB1 Sandwich ELISA Kit (Cell Signaling, #12543) by following the manufacturer's protocol.
# (§1) FIGS. 4A-4E: SU056 inhibits YB-1. […] FIG. 4C) Respective OC cells were treated with 2.5 μM SU056 for 12 h and YB-1 & CD44 expression and multidrug resistance activity was measured as described in the ‘method’ section. The % inhibition was calculated and compared to the control for the respective cell line. […]
# [1] = tested on: MDA-MB-231, MDA-MB-468 and SUM 159 cells; experiment: Cell cycle distribution in TNBC cells (flow cytometry); assay type: cell-based; details: 12 and 24 hr
# Method: FIG. 11A). The growth inhibitory effect of SU056 was evaluated using MTT assay. TNBC cell lines (MDA-MB-231, MDA-MB-468, SUM159, 4T1, E0771 and EMT6) were plated in 96 well plate. Next day, treated with vehicle (DMSO) alone or 0.005-50 μM of SU056 in fresh medium. After 48 hr of treatments, cell viability was measured using MTT assay. FIG. 11B). A total of 300-600 cells were plated per well of a 12-well plate and allowed to attach for 24 hr. […] Representative colony formations from respective wells of cell. FIG. 11C) Number of colonies formed after SU056 treatment. FIG. 11D) Effect of SU056 on cell cycle distribution in TNBC cells. MDA-MB-231, MDA-MB-468 and SUM 159 cells were treated with vehicle or SU056 for 12 and 24 hr. At the end of treatment, cells were collected and analysed using flow cytometry. […] SU056 induces level of phosphor-Histone H3 in cells at 12 and 24 hr.
# YB-1 and MDR1 expression = experiment: Immunohistochemistry of ID8 tumor xenograft samples; assay type: in vivo, mice; details: SU056 20 mg/kg
# Method: Out of six targets identified, we selected proteins whose thermal shift is above 5° in the presence of SU056 for further study of protein expression after treatment. […] To study the in vivo effects of SU056 treatment, we analyzed ID8 tumor xenograft samples via immunohistochemistry (IHC). […] To identify the broader effects of SU056 on YB-1 and its downstream protein/activity in different ovarian cancer cell lines, we selected six different cell lines and treated them with SU056 (2.5 μM) for 12 h. Cells were analyzed for YB-1 and CD44 expression and Multidrug resistance 1 (MDR1, ABC pump mediated efflux). […] Finally, we tested the time kinetics and dose-dependent effects of SU056 on YB-1 expression. OVCAR4, OVCAR8, and SKOV3 cells were treated with SU056 (1, 2.5, and 5 μM) for 3, 6, 12, and 24 h and YB-1 expression was measured using YB-1 ELISA. […] 5 μM treatment for 24 h inhibited YB-1 completely (100%) in all three OC cells (FIG. 4E).
# Immunohistochemistry: Fixed tumors and organs were embedded in paraffin. Each block was cut in 5 μm sections and fixed on poly-L lysine-coated slides. […]
# as §1
compound,measurement,setting,value
"O=C1OCC2=C1C(c1cccc(F)c1)c1cc3c(cc1N2CCO)OCO3 (stereo not shown) [SU056, 9-(3-fluorophenyl)-5-(2-hydroxyethyl)-6,9-dihydro-[1,3]dioxolo[4,5-g]furo[3,4-b]quinolin-8(5H)-one]",apoptotic cell death,ovarian cancer cells,induce apoptotic cell death
same,inhibition of YB-1 expression,YB-1,28-56%
same,cell cycle distribution in TNBC cells,[1],G2/M phase arrest
same,YB-1 and MDR1 expression in tumors (IHC),YB-1 and MDR1 expression,strongly inhibits YB-1 expression followed by downregulation of downstream MDR1
